In brackets after ≈: the same amount, converted by molar mass.
Experiments:
[1] = tested on: Mycobacteroides abscessus; test: Antimycobacterial activity against Mycobacterium abscessus CIP104536T with smooth morphotype assessed as inhibition of mycobacterial growth incubated for 3 to 5 days by resazurin microtiter assay; format: functional; conditions: time 3-5 day
[2] = tested on: Mycobacteroides abscessus; test: Antimycobacterial activity against Mycobacterium abscessus CIP104536T with rough morphotype assessed as inhibition of mycobacterial growth incubated for 3 to 5 days by resazurin microtiter assay; format: functional; conditions: time 3-5 day
Mycobacterium marinum = test: Antimycobacterial activity against Mycobacterium marinum ATCC BAA-535/M assessed as inhibition of mycobacterial growth incubated for 10 to 14 days by resazurin microtiter assay; format: functional; conditions: time 10-14 day
[3] = Cytotoxicity against C57BL/6 mouse BMDM cells assessed as reduction in cell viability measured after 24 hrs by resazurin dye based assay; format: toxicity; conditions: C57BL/6, mouse, BMDM cells (bone marrow-derived macrophages)
[4] = tested on: Mycobacterium tuberculosis; test: Antimycobacterial activity against Mycobacterium tuberculosis mc2 6230 assessed as inhibition of mycobacterial growth incubated for 10 to 14 days by resazurin microtiter assay; format: functional; conditions: time 10-14 day

## CCCCCCCOc1ccc(/C=C/C=C/C(=O)NO)cc1
[1]
  MIC50: > 100 µg/mL
[2]
  MIC50: > 100 µg/mL
Mycobacterium marinum
  MIC50: 48.3 µg/mL (≈ 159 µM)
  MIC90: 68.3 µg/mL (≈ 225 µM)
[3]
  CC50 at 24 h: 67 µg/mL (≈ 221 µM)
[4]
  MIC50: > 100 µg/mL

## CCCCCCCCCCOc1ccc(/C=C/C=C/C(=O)NO)cc1
[1]
  MIC50: > 100 µg/mL
[2]
  MIC50: > 100 µg/mL
Mycobacterium marinum
  MIC50: > 100 µg/mL
[3]
  CC50 at 24 h: > 125 µg/mL
[4]
  MIC50: > 100 µg/mL

## COc1ccc(/C=C/C=C/C(=O)NO)cc1
[1]
  MIC50: > 100 µg/mL
[2]
  MIC50: > 100 µg/mL
Mycobacterium marinum
  MIC50: 14.8 µg/mL (≈ 67.5 µM)
  MIC90: 62.1 µg/mL (≈ 283 µM)
[3]
  CC50 at 24 h: < 10 µg/mL
[4]
  MIC50: 48 µg/mL (≈ 219 µM)
  MIC90: > 100 µg/mL

## O=C(/C=C/C=C/c1ccc(-c2ccccc2)cc1)NO
[1]
  MIC50: 31.8 µg/mL (≈ 120 µM)
  MIC90: > 100 µg/mL
[2]
  MIC50: 6.9 µg/mL (≈ 26 µM)
  MIC90: 7.5 µg/mL (≈ 28.3 µM)
Mycobacterium marinum
  MIC50: > 100 µg/mL
[3]
  CC50 at 24 h: > 125 µg/mL
[4]
  MIC50: > 100 µg/mL

## O=C(/C=C/c1ccccc1)NO
[1]
  MIC50: > 100 µg/mL
[2]
  MIC50: > 100 µg/mL
Mycobacterium marinum
  MIC50: 6.7 µg/mL (≈ 41.1 µM)
  MIC90: 32.4 µg/mL (≈ 199 µM)
[3]
  CC50 at 24 h: < 10 µg/mL
[4]
  MIC50: 28.8 µg/mL (≈ 176 µM)
  MIC90: 40.7 µg/mL (≈ 249 µM)

## NNC(=O)/C=C/C=C/c1cccc(F)c1
[1]
  MIC50: > 100 µg/mL
[2]
  MIC50: > 100 µg/mL
Mycobacterium marinum
  MIC50: > 100 µg/mL
[3]
  CC50 at 24 h: > 125 µg/mL
[4]
  MIC50: > 100 µg/mL

## CCCC(=O)ONC(=O)/C=C/C=C/c1ccc(F)cc1
[1]
  MIC50: > 100 µg/mL
[2]
  MIC50: > 100 µg/mL
Mycobacterium marinum
  MIC50: 7.9 µg/mL (≈ 28.5 µM)
  MIC90: 22.4 µg/mL (≈ 80.8 µM)
[3]
  CC50 at 24 h: > 125 µg/mL
[4]
  MIC50: 11.9 µg/mL (≈ 42.9 µM)
  MIC90: 59.3 µg/mL (≈ 214 µM)

## NNC(=O)/C=C/c1ccc2c(c1)OCO2
[1]
  MIC50: > 100 µg/mL
[2]
  MIC50: > 100 µg/mL
Mycobacterium marinum
  MIC50: > 100 µg/mL
[3]
  CC50 at 24 h: 123 µg/mL (≈ 597 µM)
[4]
  MIC50: > 100 µg/mL

## O=C(CCc1ccccc1)NO
[1]
  MIC50: > 100 µg/mL
[2]
  MIC50: > 100 µg/mL
Mycobacterium marinum
  MIC50: 11.9 µg/mL (≈ 72 µM)
  MIC90: 89.3 µg/mL (≈ 541 µM)
[3]
  CC50 at 24 h: 95 µg/mL (≈ 575 µM)
[4]
  MIC50: > 100 µg/mL

## NNC(=O)/C=C/c1ccc(C(F)(F)F)cc1
[1]
  MIC50: > 100 µg/mL
[2]
  MIC50: 46 µg/mL (≈ 200 µM)
  MIC90: 46.8 µg/mL (≈ 203 µM)
Mycobacterium marinum
  MIC50: > 100 µg/mL
[3]
  CC50 at 24 h: > 125 µg/mL
[4]
  MIC50: 20.4 µg/mL (≈ 88.6 µM)
  MIC90: 44.2 µg/mL (≈ 192 µM)

## CCCCOc1ccc(/C=C/C=C/C(=O)NO)cc1
[1]
  MIC50: 27.2 µg/mL (≈ 104 µM)
  MIC90: 59.3 µg/mL (≈ 227 µM)
[2]
  MIC50: > 100 µg/mL
Mycobacterium marinum
  MIC50: > 100 µg/mL
[3]
  CC50 at 24 h: > 125 µg/mL
[4]
  MIC50: 38.6 µg/mL (≈ 148 µM)
  MIC90: > 100 µg/mL

## NNC(=O)/C=C/c1cccc(F)c1
[1]
  MIC50: > 100 µg/mL
[2]
  MIC50: > 100 µg/mL
Mycobacterium marinum
  MIC50: 41.1 µg/mL (≈ 228 µM)
  MIC90: > 100 µg/mL
[3]
  CC50 at 24 h: > 125 µg/mL
[4]
  MIC50: 65.8 µg/mL (≈ 365 µM)
  MIC90: > 100 µg/mL

## CCCCCCCCc1ccc(/C=C/C=C/C(=O)NO)cc1
[1]
  MIC50: > 100 µg/mL
[2]
  MIC50: > 100 µg/mL
Mycobacterium marinum
  MIC50: 49.4 µg/mL (≈ 164 µM)
  MIC90: > 100 µg/mL
[3]
  CC50 at 24 h: < 10 µg/mL
[4]
  MIC50: > 100 µg/mL

## COc1ccc(/C=C/C=C/C(=O)NN)cc1
[1]
  MIC50: > 100 µg/mL
[2]
  MIC50: > 100 µg/mL
Mycobacterium marinum
  MIC50: 12.6 µg/mL (≈ 57.7 µM)
  MIC90: 13.3 µg/mL (≈ 60.9 µM)
[3]
  CC50 at 24 h: 120 µg/mL (≈ 550 µM)
[4]
  MIC50: 18.1 µg/mL (≈ 82.9 µM)
  MIC90: 46.7 µg/mL (≈ 214 µM)

## O=C(/C=C/c1ccc2c(c1)OCO2)NO
[1]
  MIC50: > 100 µg/mL
[2]
  MIC50: > 100 µg/mL
Mycobacterium marinum
  MIC50: > 100 µg/mL
[3]
  CC50 at 24 h: 34 µg/mL (≈ 164 µM)
[4]
  MIC50: 31.9 µg/mL (≈ 154 µM)
  MIC90: > 100 µg/mL

## O=C(/C=C/C=C/c1ccncc1)NO
[1]
  MIC50: > 100 µg/mL
[2]
  MIC50: > 100 µg/mL
Mycobacterium marinum
  MIC50: 26.9 µg/mL (≈ 141 µM)
  MIC90: > 100 µg/mL
[3]
  CC50 at 24 h: < 10 µg/mL
[4]
  MIC50: 19.4 µg/mL (≈ 102 µM)
  MIC90: 27.6 µg/mL (≈ 145 µM)

## O=C(/C=C/C=C/c1ccc(F)cc1)NO
[1]
  MIC50: > 100 µg/mL
[2]
  MIC50: > 100 µg/mL
Mycobacterium marinum
  MIC50: 18.1 µg/mL (≈ 87.4 µM)
  MIC90: > 100 µg/mL
[3]
  CC50 at 24 h: < 10 µg/mL
[4]
  MIC50: > 100 µg/mL

## O=C(/C=C/c1ccncc1)NO
[1]
  MIC50: > 100 µg/mL
[2]
  MIC50: > 100 µg/mL
Mycobacterium marinum
  MIC50: 75 µg/mL (≈ 457 µM)
  MIC90: > 100 µg/mL
[3]
  CC50 at 24 h: < 10 µg/mL
[4]
  MIC50: 35.1 µg/mL (≈ 214 µM)
  MIC90: 42.9 µg/mL (≈ 261 µM)

## O=C(/C=C/C=C/c1ccc(C(F)(F)F)cc1)NO
[1]
  MIC50: > 100 µg/mL
[2]
  MIC50: 5.5 µg/mL (≈ 21.4 µM)
  MIC90: 10.9 µg/mL (≈ 42.4 µM)
Mycobacterium marinum
  MIC50: > 100 µg/mL
[3]
  CC50 at 24 h: < 10 µg/mL
[4]
  MIC50: 28.8 µg/mL (≈ 112 µM)
  MIC90: 80.6 µg/mL (≈ 313 µM)

## NNC(=O)/C=C/c1cccc(C(F)(F)F)c1
[1]
  MIC50: > 100 µg/mL
[2]
  MIC50: 51.4 µg/mL (≈ 223 µM)
  MIC90: 55.7 µg/mL (≈ 242 µM)
Mycobacterium marinum
  MIC50: > 100 µg/mL
[3]
  CC50 at 24 h: > 125 µg/mL
[4]
  MIC50: 40.5 µg/mL (≈ 176 µM)
  MIC90: 65.7 µg/mL (≈ 285 µM)

Source: ChEMBL document CHEMBL5143637, “Design, synthesis and antibacterial activity against pathogenic mycobacteria of conjugated hydroxamic acids, hydrazides and O-alkyl/O-acyl protected hydroxamic derivatives” (Bioorg Med Chem Lett, 2022)
